In PubChem BioAssay AID1996:
Converted amounts (≈) assume the structure as drawn.

Conditions: buffer; pH 7.4; 200.0 µM

SMILES | solubility kinetic [µg/mL]
O=C1CNC(=S)N1c1nc2ccccc2s1 | 31.6 (≈ 127 µM)
CC(=O)c1cccc(NC(=O)CCNC(=O)c2ccccc2Cl)c1 | > 51.7
COCCCn1c(=O)c2sccc2n(Cc2ccccc2)c1=O | 49.4 (≈ 150 µM)
CN(C)C(=O)NC1c2ccccc2-c2ccccc21 | > 37.8
COC(=O)c1c(N)sc(C(=O)NCCc2ccccc2)c1C | > 47.8
O=C1Cc2ccccc2C(=O)N1c1ccccc1 | 35.1 (≈ 148 µM)
COc1cccc(CNCCc2ccc3c(c2)OCO3)c1OC.O=C(O)C(=O)O | > 60.8
CCOC(=O)C1CCCN(c2c(NCCc3cccc(C)c3)c(=O)c2=O)C1 (configuration not stated) | 18 (≈ 48.6 µM)
Cc1ccc(/C(=C\CN2CCCC2)c2ccccn2)cc1.Cl | > 47.2
COc1ccc(OC(C)C(=O)NC(C)c2ccccc2)cc1 (configuration not stated) | > 44.9
COc1ccc(N2CCN(C(=O)CN3c4cccc5cccc(c45)S3(=O)=O)CC2)cc1 | 2.3 (≈ 5.26 µM)
Br.C1=C(c2ccco2)N2CCN=C2S1 | 38.8
CC(=O)c1ccc(O)c(CSc2nncn2C)c1 | > 39.5
COC(=O)c1ccc(NC(=O)c2ccc3c(c2)C(=O)N(C)C3=O)cc1 | < 0.4
N#CC(=C=[N-])c1nc2ccccc2nc1-[n+]1cccc(NC(=O)c2cccs2)c1 | 1.5 (≈ 3.78 µM)
CN(Cc1cccs1)c1nc(-c2cccnc2)nc2ccccc12 | 3 (≈ 9.02 µM)
CC1CCN(CCNC(=S)Nc2ccc(Cl)cc2)CC1 | > 46.8
Cc1cccc(C)c1NC(=O)COC(=O)c1cc[n+]([O-])cc1 | > 45
CC(=O)Nc1nc(C)c(C(C)(C)C)s1 | > 31.8
O=C(NCc1ccco1)c1cc([N+](=O)[O-])ccc1N1CCOCC1 | 46.4 (≈ 140 µM)
CC1CC(C)(C)NC(=S)N1CC(=O)NCc1ccc2c(c1)OCO2 (configuration not stated) | 36.2 (≈ 104 µM)

SMILES | solubility kinetic [µg/mL]
COc1cccc(C(=O)OCC(=O)Nc2ccc3c(c2)OCCO3)c1 | 8 (≈ 23.3 µM)
O=C(c1cc(Cl)ccc1Cl)N1CCc2ccccc21 | 12.1 (≈ 41.4 µM)
Cc1ncc([N+](=O)[O-])n1CCOc1nonc1N | > 38.1
CN(CCc1cnn(C)c1)Cc1cn(C)nc1-c1ccccc1F | > 49.1
Cn1cccc2[nH]c(=O)nc1-2 | 15.5 (≈ 104 µM)
Cc1ccc(NC(=O)c2cc(C)nc3ccccc23)c(C)c1 | 27.1 (≈ 93.3 µM)
Cc1ccc(S(=O)(=O)N2CCCCC2)c2nsnc12 | 31.9 (≈ 107 µM)
COc1ccc(OCCCC(=O)Nc2nc(C)c(C(C)=O)s2)cc1 | 1.3 (≈ 3.73 µM)
Cc1ccc(NC(=O)C(=O)C2C(=O)Nc3ccccc32)cc1 (configuration not stated) | 39.8 (≈ 135 µM)
O=C(O/N=C1\CCCc2ccccc21)C1CC1 | 28.3 (≈ 123 µM)
COc1cc(OC)c(C(=O)OCC(=O)NC2CCCCCCC2)cc1OC | > 56.9
CC1CCCCC1NC(=O)Cn1cc([N+](=O)[O-])ccc1=O (configuration not stated) | 29.1 (≈ 99.2 µM)
Cc1cnc(CNC(=O)c2ccc3oc(C(C)C)nc3c2)[nH]1 | 38.2 (≈ 128 µM)
COc1ccc(NC(=O)CN(C)C(=O)CCC2CCCC2)cc1 | 45.5 (≈ 143 µM)
CC(C)(C)c1ccc(-c2nc(N)nc(N)n2)cc1 | 0.9 (≈ 3.7 µM)
CCC(C(=O)NCc1ccc(C)cc1)c1ccccc1 (configuration not stated) | 20.2 (≈ 75.6 µM)
COC(=O)c1cc(C)nc(Sc2ccccc2NC(C)=O)n1 | 41.6 (≈ 131 µM)
CCNS(=O)(=O)c1ccc(CCC(=O)NCc2ccccn2)cc1 | > 52.1
O=C(CNC(=O)c1ccc(Br)cc1)Nc1ccc2c(c1)CCC2 | 2.5 (≈ 6.7 µM)
COc1ccc(CCNC(=O)Nc2ccc(F)cc2F)cc1OC | 1.6 (≈ 4.76 µM)
CC(CCc1ccccc1)NC(=O)CSc1cccc[n+]1[O-] (configuration not stated) | 40.6 (≈ 128 µM)

SMILES | solubility kinetic [µg/mL]
O=c1nc(-c2ccccc2)c2cc(SC(F)F)ccc2[nH]1 | 1.4 (≈ 4.6 µM)
O=C1CN(S(=O)(=O)c2ccc(F)cc2)CCN1 | > 38.7
COC(=O)c1ccc(COc2cc([N+](=O)[O-])cc3cccnc23)o1 | 3.3 (≈ 10.1 µM)
S=C(NCCc1ccccc1)N1CCCC1 | > 35.2
O=C1CNC(=O)N1 | > 15
CSc1ccccc1C(=O)OCC(=O)Nc1cccnc1Cl | 15.6 (≈ 46.3 µM)
O=C(Nc1cc(Cl)ccc1N1CCOCC1)c1cccnc1Cl | 49.7 (≈ 141 µM)
O=C1N(c2ccccc2)C(c2cccnc2)N2CCCN12 (configuration not stated) | > 42
CCC1Oc2ccc(C)cc2N(CC(=O)NCc2cccs2)C1=O (configuration not stated) | 5.2 (≈ 15.1 µM)
O=C(Cc1ccccc1)NC(=S)Nc1ccc(OC(F)F)cc1 | 11.2 (≈ 33.3 µM)
Cc1sc2ncnc(SCC(=O)N3CCCC(C(N)=O)C3)c2c1C (configuration not stated) | 53.6 (≈ 147 µM)
S=C(NCCc1ccc(Cl)cc1)NCc1ccccc1 | 16.7 (≈ 54.8 µM)
CCOc1ccc(NC(=O)Nc2cccc(C)n2)cc1 | < 0.2
Cc1ccc(S(=O)(=O)N2C(=O)c3cccc4cccc2c34)cc1 | 3.7 (≈ 11.4 µM)
CCN(C(=O)CSc1nc(C)c(C)c(C)n1)C1CCS(=O)(=O)C1 (configuration not stated) | > 53.6
CCN1CCCC1CNC(=O)c1cc2ccc(OC)cc2[nH]1 (configuration not stated) | > 45.2
C=CCSc1ncccc1C(=O)NCCc1ccccc1 | 29.3 (≈ 98.2 µM)
COC(=O)COc1c(Cl)cc(Cl)c2ccc(C)nc12 | 6.7 (≈ 22.3 µM)
CCN(CC(=O)NCc1ccc(F)cc1)C(=O)c1cc2ccccc2o1 | 47.2 (≈ 133 µM)
Cc1ccc(-n2c(N)c(Br)c(=O)[nH]c2=O)cc1C | > 46.5
